Tested on: 997537-175-T-J1-PDC complex spheroid viability
Assay: Anticancer human tumor 997537-175-T-J1-PDC patient-derived colon adenocarcinoma cell line growth inhibition [GQUAD]
Settings: for IC50: curve of first compound; for viability, T/C: stronger effect = lower value
In short: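 Viability of tumor cells grown as complex spheroids with endothelial and stromal cells, exposed to drug combinations. Top concentration at or near clinical Cmax (else 10 microM), diluted in half-log increments.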

[1] = second compound 0.0316 µM, first compound 0.0316 µM
[2] = second compound 0.0316 µM, first compound 0.1 µM
[3] = second compound 0.0316 µM, first compound 0.316 µM
[4] = second compound 0.0316 µM, first compound 1 µM
[5] = second compound 0.0316 µM, first compound 3.16 µM
[6] = second compound 0.0316 µM, first compound 10 µM
[7] = second compound 0.1 µM, first compound 0.0316 µM
[8] = second compound 0.1 µM, first compound 0.1 µM
[9] = second compound 0.1 µM, first compound 0.316 µM
[10] = second compound 0.1 µM, first compound 1 µM
[11] = second compound 0.1 µM, first compound 3.16 µM
[12] = second compound 0.1 µM, first compound 10 µM
[13] = second compound 0.316 µM, first compound 0.0316 µM
[14] = second compound 0.316 µM, first compound 0.1 µM
[15] = second compound 0.316 µM, first compound 0.316 µM
[16] = second compound 0.316 µM, first compound 1 µM
[17] = second compound 0.316 µM, first compound 3.16 µM
[18] = second compound 0.316 µM, first compound 10 µM
[19] = second compound 1 µM, first compound 0.0316 µM
[20] = second compound 1 µM, first compound 0.1 µM
[21] = second compound 1 µM, first compound 0.316 µM
[22] = second compound 1 µM, first compound 1 µM
[23] = second compound 1 µM, first compound 3.16 µM
[24] = second compound 1 µM, first compound 10 µM
[25] = second compound 3.16 µM, first compound 0.0316 µM
[26] = second compound 3.16 µM, first compound 0.1 µM
[27] = second compound 3.16 µM, first compound 0.316 µM
[28] = second compound 3.16 µM, first compound 1 µM
[29] = second compound 3.16 µM, first compound 3.16 µM
[30] = second compound 3.16 µM, first compound 10 µM
[31] = second compound 10 µM, first compound 0.0316 µM
[32] = second compound 10 µM, first compound 0.1 µM
[33] = second compound 10 µM, first compound 0.316 µM
[34] = second compound 10 µM, first compound 1 µM
[35] = second compound 10 µM, first compound 3.16 µM
[36] = second compound 10 µM, first compound 10 µM
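Further: spheroids exposed to the agents for 7 days.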
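Wherever viability, T/C is given: 100% = DMSO vehicle control viability.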

Structure (SMILES): CC1COCCN1c1cc(C2(S(C)(=N)=O)CC2)nc(-c2ccnc3[nH]ccc23)n1 (centres undefined) + CN(C)c1ccc(Nc2c3ccc(NC(=O)CCN4CCCC4)cc3nc3cc(NC(=O)CCN4CCCC4)ccc23)cc1
- IC50 (second compound 0.0316 µM): 8.42 µM
- IC50 (second compound 0.1 µM): > 10 µM
- IC50 (second compound 0.316 µM): > 10 µM
- IC50 (second compound 1 µM): > 10 µM
- IC50 (second compound 3.16 µM): > 10 µM
- IC50 (second compound 10 µM): > 10 µM
- viability, T/C [1]: 93.6%
- viability, T/C [2]: 82.9%
- viability, T/C [3]: 74.4%
- viability, T/C [4]: 84.5%
- viability, T/C [5]: 56%
- viability, T/C [6]: 49%
- viability, T/C [7]: 82.3%
- viability, T/C [8]: 80%
- viability, T/C [9]: 75.1%
- viability, T/C [10]: 59.5%
- viability, T/C [11]: 48.6%
- viability, T/C [12]: 81.9%
- viability, T/C [13]: 98.7%
- viability, T/C [14]: 66.3%
- viability, T/C [15]: 79.2%
- viability, T/C [16]: 76%
- viability, T/C [17]: 65%
- viability, T/C [18]: 76%
- viability, T/C [19]: 90%
- viability, T/C [20]: 67.4%
- viability, T/C [21]: 87.8%
- viability, T/C [22]: 75.8%
- viability, T/C [23]: 70.9%
- viability, T/C [24]: 70.5%
- viability, T/C [25]: 70.2%
- viability, T/C [26]: 93%
- viability, T/C [27]: 86.7%
- viability, T/C [28]: 82.8%
- viability, T/C [29]: 73.4%
- viability, T/C [30]: 70.6%
- viability, T/C [31]: 77%
- viability, T/C [32]: 95.7%
- viability, T/C [33]: 94.5%
- viability, T/C [34]: 88.9%
- viability, T/C [35]: 55.5%
- viability, T/C [36]: 77%

Structure (SMILES): Nc1ccn(C2OC(CO)C(O)C2(F)F)c(=O)n1 (centres undefined) + CN(C)c1ccc(Nc2c3ccc(NC(=O)CCN4CCCC4)cc3nc3cc(NC(=O)CCN4CCCC4)ccc23)cc1
- IC50 (second compound 0.0316 µM): > 10 µM
- IC50 (second compound 0.1 µM): > 10 µM
- IC50 (second compound 0.316 µM): > 10 µM
- IC50 (second compound 1 µM): 9.28 µM
- IC50 (second compound 3.16 µM): > 10 µM
- IC50 (second compound 10 µM): > 10 µM
- viability, T/C [1]: 99.1%
- viability, T/C [2]: 104%
- viability, T/C [3]: 110%
- viability, T/C [4]: 64.1%
- viability, T/C [5]: 70.2%
- viability, T/C [6]: 69.5%
- viability, T/C [7]: 96.3%
- viability, T/C [8]: 98.5%
- viability, T/C [9]: 97.1%
- viability, T/C [10]: 72.3%
- viability, T/C [11]: 88.3%
- viability, T/C [12]: 68.8%
- viability, T/C [13]: 81.7%
- viability, T/C [14]: 97.8%
- viability, T/C [15]: 74.5%
- viability, T/C [16]: 74%
- viability, T/C [17]: 96.8%
- viability, T/C [18]: 77.6%
- viability, T/C [19]: 66.7%
- viability, T/C [20]: 86.9%
- viability, T/C [21]: 79.9%
- viability, T/C [22]: 87.5%
- viability, T/C [23]: 110%
- viability, T/C [24]: 47.5%
- viability, T/C [25]: 55.6%
- viability, T/C [26]: 80.3%
- viability, T/C [27]: 79.7%
- viability, T/C [28]: 81%
- viability, T/C [29]: 84.5%
- viability, T/C [30]: 66.2%
- viability, T/C [31]: 84%
- viability, T/C [32]: 85.1%
- viability, T/C [33]: 84.7%
- viability, T/C [34]: 89.5%
- viability, T/C [35]: 80.8%
- viability, T/C [36]: 63.5%
